How the values were obtained:
[1] = test system: Z138 mantle cell lymphoma tumour cell lines; test: In vitro cytotoxicity, MTT assay; type: cell-based; conditions: Z138 cells exposed to the test compounds for 96 hours, cell viability vs DMSO treated cells
Method: The cytotoxicity studies were evaluated by MTT [3-(4,5-dimethylthiazol-2-yl)-2,5-diphenyltetrazolium bromide] assay and carried out on Z138 mantle cell lymphoma tumour cell lines. The cells are distributed onto microplates and exposed to the test compounds for 96 hours. MTT is then added for 4 hours and converted by NAD(P)H-dependent cellular oxidoreductase enzymes in formazan, which has a purple color. The viable cell number is proportional to the production of formuan salts and cell viability can be quantified by the absorbance of the solution at 540 nm with a speetrophotometer (Carmichael et al., Cancer Res. 1987, 47, 936-942).

[2] = target: T1, His-His-USP7 (aa208-560, |C315A|) (Homo sapiens, UniProt Q93009, C315A); test: Evaluation of the inhibition of USP7 by the Fluorescence Intensity (FLINT) readings; type: biochemical; conditions: 0.25 nM His-His-USP7, compound incubated 60 minutes at 30° C., 500 nM Ubiquitin-Rhodamine-110 substrate; 50% reduction in kinetic rate
T1 construct: His-His-USP7 (aa208-560, |C315A|); His-His (N)
T1 sequence (Q93009 208-560 C315A): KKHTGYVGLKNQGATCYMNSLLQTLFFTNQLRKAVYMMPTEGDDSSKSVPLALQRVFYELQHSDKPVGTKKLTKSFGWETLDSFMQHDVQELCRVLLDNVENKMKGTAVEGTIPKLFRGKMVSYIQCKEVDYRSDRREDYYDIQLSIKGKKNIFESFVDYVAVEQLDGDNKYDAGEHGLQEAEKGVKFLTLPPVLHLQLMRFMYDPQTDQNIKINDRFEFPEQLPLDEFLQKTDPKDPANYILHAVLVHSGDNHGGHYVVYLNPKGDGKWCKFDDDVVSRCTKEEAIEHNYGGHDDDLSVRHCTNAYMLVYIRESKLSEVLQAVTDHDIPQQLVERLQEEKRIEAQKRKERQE
Method: USP7 activity was measured using Rhodamine-110 c-terminal labelled Ubiquitin as a substrate (UbiQ Bio). Incubation with USP7 results in the release of Rhodamine-110 leading to an increase in fluorescence which can be used in the continuous measurement of USP7 activity.
The USP7 reactions were performed in a 50 μL volume, in 384 well black solid low binding plates (Corning #3575). The reaction buffer consisted of 100 mM Bicine pH 8.0, 0.01% TritonX100, 1 mM TCEP, and 10% DMSO.
0.25 nM His-His-USP7 (aa208-560, |C315A|) was incubated with compound (final concentration 10% DMSO) for 60 minutes at 30° C. The reaction was then initiated by the addition of 500 nM Ubiquitin-Rhodamme-110 substrate and the plate read every 3 minutes for 21 minutes to measure the release of Rhodamine-110. Fluorescence Intensity (FLINT) readings were measured using a […] plate reader (Ex.485 nm, Em.535 nm).
The inhibition of increasing doses of compound was expressed as a percentage reduction in kinetic rate compared to the kinetic rates established between ‘DMSO only’ and ‘total inhibition’ controls (no USP7). The inhibitory concentrations that gave a 50% reduction in kinetic rate (IC50) were determined, from 11-point dose response cures, in XL-Fit using a 4-Parameter Logistic Model 205 (Sigmoidal Dose-Response Model).

| Compound | IC50 [1] | IC50 [2] | IC50 ([1]; Homo sapiens, Z-138, 96 h) |
| --- | --- | --- | --- |
| 5-amino-6-(3-chlorophenyl)-3-({1-[(1R,2R)-4,4-difluoro-2-phenylcyclohexane-1-carbonyl]-4-hydroxypiperidin-4-yl}methyl)pyrimidin-4(3H)-one [Example 13] | 0.178 µM | 97.5 nM | – |
| C#C[C@]1(O)CC[C@@H](C(=O)N2CCC(O)(Cn3cnc(Oc4ccc(F)cc4)c(N)c3=O)CC2)[C@H](c2ccccc2)C1 (relative stereo) [Example 92, rel-5-amino-3-[(1-{[(1R,2R,4S)-4-ethynyl-4-hydroxy-2-phenyl-cyclohexyl]carbonyl}-4-hydroxypiperidin-4-yl)methyl]-6-(4-fluorophenoxy)pyrimidin-4-one] | – | 230 nM | 0.189 µM |
| C#CC1(F)CC[C@@H](C(=O)N2CCC(O)(Cn3cnc(Oc4ccc(F)cc4)c(N)c3=O)CC2)[C@H](c2ccccc2)C1 (relative stereo) [Example 93, rel-5-amino-3-({1-[(1R,2R)-4-ethynyl-4-fluoro-2-phenyl-cyclohexanecarbonyl]-4-hydroxypiperidin-4-yl}methyI)-6-(4-fluorophenoxy)-3,4-dihydropyrimidin-4-one] | – | 66.3 nM | 0.0411 µM |
| Nc1c(Oc2ccc(F)cc2)ncn(CC2(O)CCN(C(=O)[C@@H]3CC[C@](O)(Cc4ccccc4)C[C@H]3c3ccccc3)CC2)c1=O (relative stereo) [Example 94, rel-5-amino-3-({1-[(1R,2R,4R)-4-benzyl-4-hydroxy-2-phenyl-cyclohexanecarbonyl]-4-hydroxypiperidin-4-yl}methyl)-6-(4-fluorophenoxy)-3,4-dihydropyrimidin-4-one] | – | 63.4 nM | 0.0494 µM |
| Nc1c(Oc2ccc(F)cc2)ncn(CC2(O)CCN(C(=O)[C@@H]3CC[C@@](O)(Cc4ccccc4)C[C@H]3c3ccccc3)CC2)c1=O (relative stereo) [Example 95, rel-5-amino-3-({1-[(1R,2R,4S)-4-benzyl-4-hydroxy-2-phenyl-cyclohexanecarbonyl]-4-hydroxypiperidin-4-yl}methyl)-6-(4-fluorophenoxy)-3,4-dihydropyrimidin-4-one] | – | 172 nM | 0.253 µM |
| Nc1c(Oc2ccc(F)cc2)ncn(CC2(O)CCN(C(=O)[C@@H]3CC[C@](O)(Cc4ccccn4)C[C@H]3c3ccccc3)CC2)c1=O (relative stereo) [Example 96, rel-5-amino-6-(4-fluorophenoxy)-3-({4-hydroxy-1-[(1R,2R,4R)-4-hydroxy-2-phenyl-4-](pyridin-2-yl)methyl]cyclohexanecarbonyl]piperidin-4-yl}methyl)-3,4-dihydropyrimidin-4-one] | – | 109 nM | 0.116 µM |
| Nc1c(Oc2ccc(F)cc2)ncn(CC2(O)CCN(C(=O)[C@@H]3CC[C@@](O)(Cc4ccccn4)C[C@H]3c3ccccc3)CC2)c1=O (relative stereo) [Example 97, rel-5-amino-6-(4-fluorophenoxy)-3-[(4-hydroxy-1-{[(1R,2R,4S)-4-hydroxy-2-phenyl-4-(pyridin-2-ylmethyl)cyclohexyl]carbonyl}piperidin-4-yl)methyl]pyrimidin-4-one] | – | 38.2 nM | 0.497 µM |
| Nc1c(Oc2ccc(F)cc2)ncn(CC2(O)CCN(C(=O)[C@@H]3CCC(F)(C#CC4CC4)C[C@H]3c3ccccc3)CC2)c1=O (relative stereo) [Example 124, rel-5-amino-3-[(1 -{[(1R,2 R)-4-(2-cyclopropylethynyl)-4-fluoro-2-phenylcyclohexyl]carbonyl}-4-hydroxypiperidin-4-yl)methyl]-6-(4-fluorophenoxy)pyrimidin-1-one] | – | 89.6 nM | 0.236 µM |
| CC#CC1(F)CC[C@@H](C(=O)N2CCC(O)(Cn3cnc(Oc4ccc(F)cc4)c(N)c3=O)CC2)[C@H](c2ccccc2)C1 (relative stereo) [Example 125, rel-5-amino-3-[(1-{[(1R,2R)-4-fluoro-2-phenyl-4-(prop-1-yn-1-yl)cyclohexyl]carbonyl}-4-hydroxypiperidin-4-yl)methyl]-6-(4-fluorophenoxy)pyrimidin-4-one] | – | 89.5 nM | 0.0603 µM |
| Nc1c(Oc2ccc(F)cc2)ncn(CC2(O)CCN(C(=O)C3CCC(O)(Cc4ccc(F)cc4)CC3c3ccccc3)CC2)c1=O [Example 99, rel-5-amino-6-(4-fluorophenoxy)-3-({1-[(1R,2R,4R)-4-[(4-fluorophenyl))methyl]-4-hydroxy-2-phenylcyclohexanecarbonyl]-4-hydroxypiperidin-4-yl}methyl)-3,4-dihydropyrimidin-4-one] | – | – | 0.0128 µM |
| Nc1c(Oc2ccc(CN3CCOCC3)cc2)ncn(CC2(O)CCN(C(=O)[C@@H]3CCC(F)(F)C[C@H]3c3ccccc3)CC2)c1=O [Example 113, 5-amino-3-({1-[(1R,2R)-4,4-difluoro-2-phenylcyclohexane-1-carbonyl]-4-hydroxypiperidin-4-yl}methyl)-6-{4-[(morpholin-4-yl)methyl]phenoxyl}pyrimidin-4(3H)-one] | – | 140 nM | – |
| Nc1c(Oc2ccc(CCC3CCCCN3)cc2)ncn(CC2(O)CCN(C(=O)[C@@H]3CCC(F)(F)C[C@H]3c3ccccc3)CC2)c1=O (stereo partly drawn) [Example 114, 5-amino-3-({1-[(1R,2R)-4,4-difluoro-2-phenylcyclohexane-1-carbonyl]-4-hydroxypiperidin-4-yl}methyl)-6-{4-[2-(piperidin-2-yl)ethyl]phenoxy}pyrimidin-4(3H)-one] | – | 48.7 nM | – |
| Nc1c(Oc2ccc([C@@H](N)C(F)(F)F)cc2)ncn(CC2(O)CCN(C(=O)[C@@H]3CCC(F)(F)C[C@H]3c3ccccc3)CC2)c1=O [Example 116, 5-amino-6-{4-[(1R)-1-amino-2,2,2-trifluoroethyl]phenoxy}-3-({1-[(1R,2R)-4,4-difluoro-2-phenylcyclohexane-1-carbonyl]-4-hydroypiperidin-4-yl}methyl)pyrimidin-4(3H)-one] | – | 86.2 nM | – |
| Nc1c(Oc2ccc(F)cc2)ncn(CC2(O)CCN(C(=O)[C@@H]3CC[C@@](F)(C#Cc4ccccn4)C[C@H]3c3ccccc3)CC2)c1=O [Example 131, 5-amino-3-[(1-{[(1R,2R,4S)-4-fluoro-2-phenyl-4-[2-(pyridin-2-yl)ethynyl]cyclohexyl]carbonyl}-4-hydroxypiperidin-4-yl)methyl]-6-(4-fluorophenoxy)pyrimidin-4-one] | – | 21.8 nM | – |
| Nc1c(Oc2ccc(F)cc2)ncn(CC2(O)CCN(C(=O)[C@@H]3CC[C@](F)(C#Cc4ccccc4)C[C@H]3c3ccccc3)CC2)c1=O [Example 135, 5-amino-3-({1-[(1R,2R,4R)-4-fluoro-2-phenyl-4-(2-phenylethynyl)cyclohexanecarbonyl]-4-hydroxypiperidin-4-yl}methyl)-6-(4-fluorophenoxy)-3,4-dihydropyrimidin-4-one] | – | 36.4 nM | – |
| Nc1c(Oc2ccc(F)cc2)ncn(CC2(O)CCN(C(=O)[C@@H]3CC[C@@](F)(C#Cc4ccccc4)C[C@H]3c3ccccc3)CC2)c1=O [Example 136, 5-amino-3-({1-[(1R,2R,4S)-4-fluoro-2-phenyl-4-(2-phenylethynyl)cyclobexanecarbonyl]-4-hydroxypiperidin-4-yl}methyl)-6-(4-fluorophenoxy)-3,4-dihydropyrimidin-4-one] | – | 197 nM | – |
| C#C[C@@]1(OC)CC[C@@H](C(=O)N2CCC(O)(Cn3cnc(Oc4ccc(F)cc4)c(N)c3=O)CC2)[C@H](c2ccccc2)C1 [Example 155, 5-amino-3-[(1-{[(1R,2R,4R)-4-ethynyl-4-methoxy-2-phenylcyclohexyl]carbonyl}-4-hydroxypiperidin-4-yl)methyl]-6-(4-fluorophenoxy)pyrimidin-4-one] | – | 179 nM | – |
| Nc1c(Oc2ccc(F)cc2)ncn(CC2(O)CCN(C(=O)[C@@H]3CC[C@@](F)(C#Cc4cc(F)ccn4)C[C@H]3c3ccccc3)CC2)c1=O [Example 158, 5-amino-3-({1-[(1R,2R,4S)-4-fluoro-4-[2-(4-fluoropyridin-2-yl)ethynyl]-2-phenylcyclohexanecarbonyl]-4-hydroxypiperidin-4-yl}methyl)-6-(4-fluorophenoxy)-3,4-dihydropyrimidin-4-one] | – | 67.7 nM | – |
| CO[C@]1(C(=O)N2CCC(O)(Cn3cnc(Oc4ccc(F)cc4)c(N)c3=O)CC2)CC[C@H](C#Cc2nccn2C)C[C@@H]1c1ccccc1 [Example 160, 5-amino-6-(4-fluorophenoxy)-3-[(4-hydroxy-1-{[(1R,2R,4S)-1-methoxy-4-[2-(1-methylimidazol-2-yl)ethynyl]-2-phenylcyclohexyl]carbonyl}piperidin-4-yl)methyl]pyrimidin-4-one] | – | 138 nM | – |
